Structures can show the parent of a compound that is named as a salt.
Tests used:
HCT116 [1] = settings: 72 h
Experimental: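 HCT116 control and MTA1-KO (CRISPR) HCT116 cells were seeded in 384-well plates (800 cells/well), treated 16 h later with 237 metabolism-related anticancer drugs at five doses (10 uM, 2 uM, 400 nM, 80 nM, 16 nM) for 72 h, two replicates; viability by CCK8. Values are % inhibition of viability relative to untreated cells, plus fitted IC50.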

HCT116 [2] = experiment: viability inhibition vs untreated; higher = more cytotoxic; settings: 72 h

SMILES	IC50 (HCT116 [1]; genotype: MTA1-KO)	IC50 (HCT116 [1]; genotype: control)	viability inhibition (HCT116 [2]; genotype: MTA1-KO, 16 nM)	viability inhibition (HCT116 [2]; genotype: MTA1-KO, 80 nM)	viability inhibition (HCT116 [2]; genotype: MTA1-KO, 400 nM)	viability inhibition (HCT116 [2]; genotype: MTA1-KO, 2000 nM)	viability inhibition (HCT116 [2]; genotype: MTA1-KO, 10000 nM)	viability inhibition (HCT116 [2]; genotype: control, 16 nM)	viability inhibition (HCT116 [2]; genotype: control, 80 nM)	viability inhibition (HCT116 [2]; genotype: control, 400 nM)	viability inhibition (HCT116 [2]; genotype: control, 2000 nM)	viability inhibition (HCT116 [2]; genotype: control, 10000 nM)
S=C(N/N=C1/CCCc2cccnc21)N1CCN(c2ccccn2)CC1 [COTI2]	0.246 µM	1.07 µM	5.92%	0.177%	50.3%	49.7%	67.4%	8.87%	-13.6%	-3.5%	87.4%	88.4%
CC[C@H](C)C(=O)O[C@H]1C[C@@H](C)C=C2C=C[C@H](C)[C@H](CC[C@@H]3C[C@@H](O)CC(=O)O3)[C@H]21 [Lovastatin]	> 10 µM	> 10 µM	-10.2%	-12.6%	-7.31%	-11.7%	-8.01%	2.13%	-3.28%	8.89%	5.64%	29.4%
Cc1cc(C2CCCCC2)n(O)c(=O)c1 [Ciclopirox]	4.96 µM	1.02 µM	-13.6%	8.1%	-8.33%	25.7%	64.7%	9.52%	6.31%	24%	77%	113%
NS(=O)(=O)c1ccc(S(=O)(=O)Nc2cccc3c(Cl)c[nH]c23)cc1 [Indisulam]	0.129 µM	0.445 µM	-0.89%	30.5%	59.8%	90.3%	96.6%	-5.81%	-7.51%	10.8%	90.9%	90.2%
O=c1cc(N2CCOCC2)oc2c(-c3ccc4c(c3)OCCO4)csc12 [SF2523]	8.68 µM	9.37 µM	7.25%	-7.41%	-9.52%	-14.8%	68.1%	-25.2%	-16.4%	-24%	-23.1%	55.5%
NC(N)=NC(N)=NCCc1ccccc1 [Phenformin hydrochloride]	> 10 µM	> 10 µM	-11.4%	-9.26%	-10.6%	-4.27%	20.1%	12.5%	18.4%	9.46%	8.84%	42.4%
CCn1c(=O)c(-c2ccn[nH]2)cc2c(C)nc(N)nc21 [Voxtalisib]	2.36 µM	5.49 µM	5.96%	-3.02%	6.24%	35.5%	72.3%	8.11%	25.4%	16.1%	37.2%	70.3%
C[C@H]1CCC/C=C/[C@@H]2C[C@H](O)C[C@H]2[C@H](O)/C=C/C(=O)O1 [Brefeldin A]	0.255 µM	0.166 µM	-15.6%	-20.1%	104%	105%	105%	4.87%	-4.17%	112%	109%	110%
NS(=O)(=O)c1cc2c(cc1Cl)NC(C(Cl)Cl)NS2(=O)=O (stereo not given) [Trichlormethiazide]	> 10 µM	> 10 µM	-29.5%	-30.5%	-28.4%	-24.3%	-25.6%	-19.9%	-23.8%	-25.7%	-14.7%	-2.52%
Nc1nc2[nH]cc(CCc3ccc(C(=O)N[C@@H](CCC(=O)O)C(=O)O)cc3)c2c(=O)[nH]1 [Pemetrexed Disodium Hydrate]	1.71 µM	> 10 µM	-0.998%	0.351%	-2.35%	34.3%	60.9%	-14.7%	-8.65%	-11.7%	-6.77%	5.15%
NC(=O)c1ncn([C@@H]2O[C@H](CO)[C@@H](O)[C@H]2O)c1N [AICAR (Acadesine)]	> 10 µM	> 10 µM	-0.376%	0.906%	-7.18%	-5.56%	6.99%	-3.52%	-3.58%	-3.52%	-4.22%	37.8%
Nc1ccccc1S(N)(=O)=O [2-Aminobenzenesulfonamide]	> 10 µM	> 10 µM	-12%	-6.34%	-8.18%	-6.12%	-8.74%	-4.67%	-10.5%	-7.82%	-0.883%	19.7%
Cc1c(CN2CCN(C(=O)[C@H](C)O)CC2)sc2c(N3CCOCC3)nc(-c3cnc(N)nc3)nc12 [Apitolisib]	0.471 µM	0.268 µM	-11.5%	2.04%	38.8%	65.3%	82.6%	0.365%	0.791%	60.6%	70.1%	80.4%
Cc1ccccc1C(C(=O)NC1CCCCC1)N(C(=O)Cn1ccnc1C)c1cccc(F)c1 (stereo not given) [AGI5198]	> 10 µM	> 10 µM	7.58%	7.91%	5.76%	8.57%	37.4%	-3.24%	-17.7%	-10.7%	-12.3%	2.37%
O=C1NC(=O)/C(=C/c2ccc3nccc(-c4ccncc4)c3c2)S1	1.21 µM	2.02 µM	-12%	-22.4%	10.1%	64.1%	99.4%	1.82%	-12%	5.41%	56.4%	75.1%
O=C(O)CNC(=O)c1c(O)c2ccccc2n(Cc2ccccc2)c1=O [IOX 2]	> 10 µM	> 10 µM	15.5%	-17.5%	-20.5%	-22%	9.66%	-6.02%	3.87%	-7.43%	-4.74%	-0.498%
O=C(Nc1cccc(Nc2ncc(Br)c(NCCc3cnc[nH]3)n2)c1)N1CCCC1 [BX912]	1.27 µM	1.5 µM	-9.54%	7.13%	22.8%	64.5%	92.4%	-0.895%	-7.72%	13.9%	47.2%	75.2%
Nc1nonc1C(=Nc1ccc(F)c(Cl)c1)NO	> 10 µM	> 10 µM	11.1%	13.3%	16.9%	23.6%	36.3%	10.4%	19%	-4.25%	11%	9.01%
O=c1c2cc(O)c(O)cc2oc2cc(O)c([C@@H]3O[C@H](CO)[C@@H](O)[C@H](O)[C@H]3O)c(O)c12 [Mangiferin]	> 10 µM	> 10 µM	-12.5%	-17.6%	-11.2%	-10.4%	-14.8%	-7.62%	8.64%	4.62%	6.09%	1.62%
Cc1c(C(=O)N2CCOc3ccc(-c4ccc(N)nc4)cc3C2)ccc(S(C)(=O)=O)c1F [XL388]	4.64 µM	> 10 µM	-7.29%	5.97%	0.224%	19%	74.8%	0.193%	-2.53%	-7.3%	-11.7%	47%
Cc1nc(-c2nc(-c3ccc(OC(F)(F)F)cc3)no2)nn1Cc1cccc(N2CCC(S(C)(=O)=O)CC2)c1	> 10 µM	> 10 µM	1.35%	25%	26.2%	29.9%	45.9%	13.9%	17.5%	21.8%	14.5%	23.9%
CC(=O)c1ccc2c(c1)c1cc(C(C)=O)ccc1n2CCNC(C)C [CBL0137 hydrochloride]	0.379 µM	0.355 µM	-9.26%	-16.6%	65.6%	114%	109%	7.74%	-9.1%	81.5%	108%	103%
COc1ccc(-c2ccc3ncc4c(c3c2)n(-c2ccc(N3CCNCC3)c(C(F)(F)F)c2)c(=O)n4C)cn1 [BGT226]	0.0773 µM	0.0713 µM	3.91%	56.3%	83%	97.4%	106%	-4.27%	60.1%	90.7%	99%	116%
O=C(Oc1cccc(F)c1OC(=O)c1cccc(O)c1)c1cccc(O)c1 [WZB117]	> 10 µM	> 10 µM	1.38%	-12.9%	-10.3%	-1.16%	12.7%	-23.3%	-8.87%	-3.93%	-25.9%	-15%
Cc1c(CN2CCN(c3cccc(C(F)(F)F)c3)CC2)cc(-c2ccccc2)n1NC(=O)c1ccncc1 [Sudoterb free base]	> 10 µM	> 10 µM	-13.3%	-15.8%	-16%	-17%	44.1%	-4.96%	1.24%	-11%	-15%	-4.96%
CO[C@@H](C)Cn1c(=O)n(C)c2cnc3ccc(-c4cncc(C(C)(C)O)c4)cc3c21	0.289 µM	0.382 µM	-8.01%	27.7%	58.8%	90.6%	102%	-0.225%	-9.63%	58.5%	90.9%	104%
C[C@]12CC[C@H](O)C[C@H]1CC[C@@H]1[C@@H]2CC[C@]2(C)[C@@](O)(c3ccoc3)CC[C@]12O [Rostafuroxin]	> 10 µM	> 10 µM	11.8%	13.5%	10%	14.5%	30.6%	-0.895%	11.7%	13.9%	5.09%	13%
CC(C)(O)CNc1nc(Nc2ccnc(C(F)(F)F)c2)nc(-c2cccc(C(F)(F)F)n2)n1 [Enasidenib]	> 10 µM	> 10 µM	-26%	-20.5%	-17.3%	-19.3%	-24.8%	-12.3%	-12.7%	-4.75%	-20.9%	-15.6%
NS(=O)(=O)c1cc2c(cc1Cl)NCNS2(=O)=O [Hydrochlorothiazide]	> 10 µM	> 10 µM	-4.21%	-3.92%	-3.75%	-5.89%	-2.82%	18.6%	15.8%	14.2%	-4.67%	13.5%
COCC1(CO)C(=O)C2CCN1CC2 (stereo not given) [PRIMA-1Met]	> 10 µM	> 10 µM	7.04%	1.21%	20.1%	-5.66%	5.13%	13.6%	13%	5.28%	1.17%	30.6%
